Laboratory results reported in patent US12655107B2 (The United States of America, as represented by the …, priority 2018, dated 2026).
Like-named read-outs stand apart in the source and are kept apart here.

Columns and labels:
[1] = tested on: Huh7; assay: MTT cytotoxicity assay, Huh7; assay type: cell-based, human; settings: Table 1b
Description: (§1) Cytotoxicity Assays. […] The cells were incubated with the tested compounds for 72 hours in a five-dose assay ranging from 0.01 to 100 μM concentration. After drug treatments, MTT solution was added to test the percentage growth of tumor cells.
(§2) For the drug treatment experiments, the cancer cells were treated with the compounds (predissolved in DMSO) at a five-dose assay ranging from 0.01 to 100 μM concentration. […] After 4 h incubation, the formazan crystal formed in the well was dissolved with […] of DMSO for optical density reading at 570 nm. The GI50 value was calculated by nonlinear regression analysis (GraphPad Prism).

[2] = tested on: CCRF-CEM; assay: MTT cytotoxicity assay, CCRF-CEM; assay type: cell-based, human; settings: 72 h, Table 1b
Description: as §1, §2

[3] = tested on: A549; assay: MTT cytotoxicity assay, A549; assay type: cell-based, human
Description: as §1
(§3) The compounds were incubated with the cells for 72 hours in a five-dose assay ranging from 0.01 to 100 μM concentration. At the end of the incubation, the MTT solution was added to test the percentage growth of tumor cells.
as §2

[4] = biological target: T1, Top1-DNA covalent cleavage complexes in HCT116 cells (Homo sapiens, UniProt P11387); assay: Immunocomplex of enzyme to DNA (ICE) assay; assay type: cell-based; settings: HCT116, 25, 50 and 100 μM
T1 construct: endogenous in cells; host or cells: HCT116 (human colon cancer)

[5] = tested on: MCF-7; assay: MTT cytotoxicity assay, MCF-7; assay type: cell-based, human; settings: Table 7, read-out: GI50 ± SC (μM) MCF-7
Description: as §3, §2

[6] = biological target: T2, Top1 (Homo sapiens, UniProt P11387); assay: Top1-mediated DNA cleavage assay; assay type: biochemical
T2 sequence (P11387 1-765): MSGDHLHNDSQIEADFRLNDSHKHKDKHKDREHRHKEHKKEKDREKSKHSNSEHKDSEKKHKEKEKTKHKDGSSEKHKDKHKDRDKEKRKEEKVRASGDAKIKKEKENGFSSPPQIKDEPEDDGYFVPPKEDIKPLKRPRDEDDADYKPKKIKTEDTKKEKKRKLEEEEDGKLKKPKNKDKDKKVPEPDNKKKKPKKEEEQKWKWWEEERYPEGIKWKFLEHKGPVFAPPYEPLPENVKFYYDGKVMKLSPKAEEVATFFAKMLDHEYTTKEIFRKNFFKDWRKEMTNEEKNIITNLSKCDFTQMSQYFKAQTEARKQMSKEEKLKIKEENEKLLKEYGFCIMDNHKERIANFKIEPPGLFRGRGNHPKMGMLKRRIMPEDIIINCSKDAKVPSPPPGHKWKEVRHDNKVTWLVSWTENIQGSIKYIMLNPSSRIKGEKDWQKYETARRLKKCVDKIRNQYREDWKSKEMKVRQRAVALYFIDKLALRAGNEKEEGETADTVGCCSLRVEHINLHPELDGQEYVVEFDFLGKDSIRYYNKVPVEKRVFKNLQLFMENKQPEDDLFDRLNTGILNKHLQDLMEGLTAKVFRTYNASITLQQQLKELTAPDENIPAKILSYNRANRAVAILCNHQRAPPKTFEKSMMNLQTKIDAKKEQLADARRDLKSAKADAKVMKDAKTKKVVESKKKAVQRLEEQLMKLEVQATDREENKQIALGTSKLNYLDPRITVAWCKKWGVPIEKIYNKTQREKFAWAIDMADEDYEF

[7] = tested on: DU145; assay: MTT cytotoxicity assay, DU145; assay type: cell-based, human; settings: 72 h
Description: as §1, §3, §2

[8] = tested on: HCT116; assay: MTT cytotoxicity assay, HCT116; assay type: cell-based, human; settings: 72 h
Description: as §1, §3, §2

[9] = biological target: Tdp1 (Homo sapiens, UniProt Q9NUW8); assay: Tdp1 inhibition fluorescence assay; assay type: biochemical; settings: compounds at 100 μM
Description: Tdp Inhibition. […] The compounds were tested at 100 μM concentration. […] Fluorescence assay. […] Tdp1 solution (20 μL/well, 0.02 μL purified Tdp1 (100 nM) in 10 mM Tris-HCl, pH 7.5, 50 mM KCL, I mM EDTA, 1 mM DTT) was dispensed into wells of a white 384-well plate (NEST). The tested compound solution in DMSO (5 μL) was pinned into assay plates and incubated at room temperature for 30 min. […] Tdp percentage inhibition of the tested compounds was calculated by comparing the rate of increase in fluorescence throughout time for the compound-treated wells to that of DMSO control wells.

[10] = graded relative to CPT at 1 μM, Table 7
[11] = Table 1b, read-out: GI50 (μM) DU145
[12] = 72 h, Table 1b, read-out: GI50 (μM) A549
[13] = Table 1b, read-out: GI50 (μM) HCT116
[14] = Table 7, read-out: GI50 ± SC (μM) DU145
[15] = 72 h, Table 7, read-out: GI50 ± SC (μM) A-49
[16] = Table 7, read-out: GI50 ± SC (μM) HCT116

Tdp1, sequence (Q9NUW8 whole entry): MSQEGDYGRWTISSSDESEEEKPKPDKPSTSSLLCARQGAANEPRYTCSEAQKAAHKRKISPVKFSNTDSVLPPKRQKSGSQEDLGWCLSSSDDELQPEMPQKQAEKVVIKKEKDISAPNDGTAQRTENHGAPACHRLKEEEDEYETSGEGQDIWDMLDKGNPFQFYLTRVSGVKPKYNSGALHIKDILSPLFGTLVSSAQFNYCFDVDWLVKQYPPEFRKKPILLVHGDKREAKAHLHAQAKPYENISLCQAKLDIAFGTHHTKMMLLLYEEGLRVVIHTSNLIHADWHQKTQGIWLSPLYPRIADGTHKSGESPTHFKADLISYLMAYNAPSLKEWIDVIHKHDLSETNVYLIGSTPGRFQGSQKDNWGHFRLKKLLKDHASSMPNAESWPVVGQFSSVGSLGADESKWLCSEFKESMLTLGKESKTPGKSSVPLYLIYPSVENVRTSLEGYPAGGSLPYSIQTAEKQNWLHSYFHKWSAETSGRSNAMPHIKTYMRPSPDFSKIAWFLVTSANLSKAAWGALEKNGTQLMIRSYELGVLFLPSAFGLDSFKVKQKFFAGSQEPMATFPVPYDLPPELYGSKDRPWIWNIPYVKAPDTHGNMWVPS

| Molecule | TOP1 inhibition [6, 10] | GI50 [7, 14] [µM] | GI50 [3, 15] [µM] | GI50 [8, 16] [µM] | GI50 ([5]; 72 h) [µM] | other results |
| --- | --- | --- | --- | --- | --- | --- |
| CC[C@@]1(O)C(=O)OCc2c1cc1n(c2=O)Cc2cc3ccccc3nc2-1 [Compound 1, camptothecin, reference compound] | ++++ |  |  |  |  | GI50 ([1]; Homo sapiens, Huh-7, 72 h): 0.099 ± 0.017 µM; GI50 ([2]; Homo sapiens, CCRF-CEM): 0.007 ± 0.003 µM; GI50 ([3]; Homo sapiens, A549, 72 h, Table 7, read-out: GI50 ± SC (μM) A-49): 0.099 ± 0.017 µM; induction of cellular Top1cc [4]: induced the formation of cellular TOP1 cc in a dose-dependent manner; GI50 ([5]; Homo sapiens, MCF7, 72 h): 0.012 ± 0.002 µM; TOP1 inhibition ([6]; semi-quantitative score relative to CPT (1) at 1 μM, tested at 0.1-100 μM): ++++ (++++, equal activity) |
| COc1cc2c(=O)n(C)c3c4cc5c(cc4ccc3c2cc1OC)OCO5 [Compound 6, oxynitidine, reference compound] |  |  |  |  |  | GI50 ([1]; 72 h): > 100 µM; GI50 [7, 11]: 64.2 ± 10.9 µM; GI50 [2]: 26.5 ± 5.41 µM; GI50 [3, 12]: 39.4 ± 26.2 µM; GI50 [8, 13]: 74.8 ± 4.36 µM |
| COc1cc2c(cc1OC)-c1ccc3cc4c(cc3c1N(CCN1CCCC1)C2)OCO4 [Compound 28a, 2,3-Dimethoxy-12-(2-(pyrrolidin-1-yl)ethyl)-12,13-dihydro-[1,3]dioxolo[4′,5′:4,5]benzo[1,2-c]phenanthrdine] |  |  |  |  |  | GI50 ([1]; 72 h): 8.07 ± 1.3 µM; GI50 [7, 11]: 2.04 ± 0.41 µM; GI50 [2]: 1.25 ± 0.18 µM; GI50 [3, 12]: 6.59 ± 1.29 µM; TDP1 inhibition [9]: 0%; GI50 [8, 13]: 4.25 ± 3.11 µM |
| COc1cc2c(=O)n(CCN(C)S(=O)(=O)C(F)(F)F)c3c4cc5c(cc4ccc3c2cc1OC)OCO5 [Compound 51, N-(2-(2,3-dimethoxy-13-oxo-[1,3]dioxolo[4′5′:4,5]benzo[1,2-c]phenanthridin-12(13H)-yl)ethyl)-1,1,1-trifluoro-N-methylmethanesulfonamide] |  | 65 ± 1.2 | 42 ± 0.98 | 86 ± 2.5 | 35 ± 1.7 |  |
| COc1cc2c(=O)n(CCN(C)S(=O)(=O)C3CC3)c3c4cc5c(cc4ccc3c2cc1OC)OCO5 [Compound 52, N-(2-(2,3-dimethoxy-13-oxo-[1,3]dioxolo[4′,5′:4,5]benzo[1,2-c]phenanthridin-12(13H)-yl)ethyl)-N-methylcyclopropanesulfonanide] | + (+, between 20% and 50% activity) | 10 ± 1.2 | 15 ± 1.5 | 7.9 ± 0.15 | 5.8 ± 0.89 |  |
| COc1cc2c(=O)n(CCN(C)S(=O)(=O)N3CCCC3)c3c4cc5c(cc4ccc3c2cc1OC)OCO5 [Compound 54, N-(2-(2,3-dimethoxy-13-oxo-[1,3]dioxolo[4,5′:4,5]benzo[1,2-c]phenanthridin-12(13H)-yl)ethyl)-N-methylpyrrolidine-1-sulfonamide] | + (+, between 20% and 50% activity) | 3.1 ± 0.3 | 5.3 ± 0.41 | 2.5 ± 0.18 | 3.8 ± 0.25 |  |
| COc1cc2c(=O)n(CCN(C)S(=O)(=O)N3CCOCC3)c3c4cc5c(cc4ccc3c2cc1OC)OCO5 [Compound 55, N-(2-(2,3-dimethoxy-13-oxo-[1,3]dioxolo[4′,5′:4,5]benzo[1,2-c]phenanthridin-12(13H)-yl)ethyl)-N-methylmorpholine-4-sulfonamide] | + (+, between 20% and 50% activity) | 48 ± 1.2 | 35 ± 2.5 | 40 ± 1.2 | 64 ± 0.57 |  |
| COc1cc2c(=O)n(CCNS(=O)(=O)C3CC3)c3c4cc5c(cc4ccc3c2cc1OC)OCO5 [Compound 58, N-(2-(2,3-dimethoxy-13-oxo-[1,3]dioxolo[4′,5′:4,5]benzo[1,2-c]phenanthridin-12(13H)-yl)ethyl)cyclopropanesulfonamide] | ++ (++, between 50% and 75% activity) | 1.3 ± 0.32 | 4.3 ± 0.21 | 5.2 ± 0.13 | 3 ± 0.63 |  |
| COc1cc2c(=O)n(CCNS(=O)(=O)N(C)C)c3c4cc5c(cc4ccc3c2cc1OC)OCO5 [Compound 59, N-(2-(2,3-dimethoxy-13-oxo-[1,3]dioxolo[4′,5′:4,5]benzo[1,2-c]phenanthridin-12(13H)-yl)ethyl)dimethylamine-1-sulfonamide] | + (+, between 20% and 50% activity) | 45 ± 1.2 | 35 ± 0.14 | 30 ± 2.1 | 21 ± 1 |  |
| COc1cc2c(=O)n(CCNS(=O)(=O)N3CCCC3)c3c4cc5c(cc4ccc3c2cc1OC)OCO5 [Compound 60, N-(2-(2,3-dimethoxy-13-oxo-[1,3]dioxolo[4′,5′:4,5]benzo[1,2-c]phenanthridin-12(13H)-yl)ethyl)pyrrolidine-1-sulfonamide] |  | 79 ± 1 | 61 ± 0.15 | 34 ± 1.1 | 38 ± 0.78 |  |
| COc1cc2c(=O)n(CCNS(=O)(=O)N3CCOCC3)c3c4cc5c(cc4ccc3c2cc1OC)OCO5 [Compound 61, N-(2-(2,3-dimethoxy-13-oxo-[1,3]dioxolo[4′,5′:4,5]benzo[1,2-c]phenanthridin-12(13H)-yl)ethyl)morpholine-4-sulfonamide] | ++ (++, between 50% and 75% activity) | 1.6 ± 0.021 | 2.9 ± 0.027 | 1.1 ± 0.047 | 0.89 ± 0.12 |  |
| COc1cc2c(=O)n(CCNP(=O)(OC)OC)c3c4cc5c(cc4ccc3c2cc1OC)OCO5 [Compound 62, Dimethyl(2-(2,3-dimethoxy-13-oxo-[1,3]dioxolo[4′,5′:4,5]benzo[1,2-c]phenanthridin-12(13H)-yl)ethyl)phosphoramidate] |  | 39 ± 2.2 | 41 ± 2 | 51 ± 1.5 | 48 ± 1.9 |  |
| COc1cc2c(=O)n(CCNC(=O)C3CC3)c3c4cc5c(cc4ccc3c2cc1OC)OCO5 [Compound 63, N-(2-(2,3-dimethoxy-13-oxo-[1,3]dioxolo[4,5′:4,5]benzo[1,2-c]phenanthridin-12(13H)-yl)ethyl)cyclopropanecarboxamide] | + (+, between 20% and 50% activity) | 7.8 ± 0.52 | 1.3 ± 0.006 | 5.3 ± 0.11 | 2.2 ± 0.27 |  |
| Dimethyl(2-(2,3-dimethoxy-13-oxo-[1,3]dioxolo[4′,5′:4,5]benzo[1,2-c]phe-nanthridin-12(13H)-yl)ethyl)(methyl)phosphoramidate [Compound 56] | ++ (++, between 50% and 75% activity) | 5.3 ± 0.21 | 14 ± 1.4 | 9.2 ± 0.14 | 10 ± 0.54 |  |
| N-(2-(2,3-dimethoxy-13-oxo-[1,3]dioxolo[4′,5′:4,5]benzo[1,2-c]phenanthridin-12(13H)-yl)ethyl)-N-methyldiethylamine-1-sulfonamide [Compound 53] | + (+, between 20% and 50% activity) | 15 ± 0.59 | 7.9 ± 0.23 | 0.96 ± 0.04 | 1.5 ± 0.15 |  |
